Source: US20240123078A1, “COMPOUNDS AND METHODS FOR MODULATING IMMUNE-RELATED PROTEINS” (Vividion Therapeutics, Inc., priority 2019, published 2024)

Key:
Test in all cases: Cysteine reactivity ABPP
Assay type in all cases: binding
[1] = biological target: T1, STAT3 Signal transducer and activator of transcription 3 C712, C718 (P40763) (Homo sapiens, UniProt P40763)
T1 construct: endogenous in cells; host or cells: primary human T cells
Description: (§1) Activated or expanded primary human T cells were re-suspended in RPMI (1×10^6 cells/mL) containing 10% fetal bovine serum (FBS), penicillin (100 U/mL), streptomycin ([…]), and L-glutamine (2 mM). The cells were treated with DMSO or compounds for 3 h, pelleted (524 g, 5 min), washed with PBS, and lysed by sonication (2×8 pulses). Soluble and particulate proteomic fractions were separated by ultracentrifugation (100,000 g, 45 min), and protein concentration was normalized to 1.7 mg/mL using a standard DC protein assay (Bio-Rad). The resulting proteomes were analyzed by competitive isotopic Tandem Orthogonal Proteolysis Activity-Based Protein Profiling (isoTOP-ABPP).
(§2) The heavy/light isoTOP-ABPP ratios (R values) for each unique peptide (DMSO/compound treated) were quantified with in-house CIMAGE software (Weerapana et al., 2010) using default parameters (3 MS1 acquisitions per peak and signal to noise threshold set to 2.5). Site-specific engagement of cysteine residues was assessed by blockade of IA-alkyne probe labeling. […] Ratios for unique peptide sequences were calculated for each experiment; overlapping peptides with the same modified cysteine (e.g., different charge states, elution times or tryptic termini) were grouped together and the median ratio was reported as the final ratio (R). Additionally, ratios for peptide sequences containing multiple cysteines were grouped together. When aggregating data across experimental replicates, the mean of each experimental median R was reported. The peptide ratios reported by CIMAGE were further filtered to ensure the removal or correction of low-quality ratios in each individual dataset. The quality filters applied were the following: removal of half-tryptic peptides, removal of peptides with more than one tryptic miscleaved, removal of peptides with R=20 and only a single MS2 event triggered during the elution of the parent ion, removal of non-unique peptides. Further filtering was then performed as described below for each experiment type.
(§3) Samples (500 μL, 1.7 mg/mL) were treated with iodoacetamide desthiobiotin (IA-DTB, 5 μL of 10 mM stock in DMSO, final concentration: 100 μM) for 1 h at ambient temperature. Ice-cold MeOH (500 μL) and CHCl3 (200 μL) were then added, the mixture was vortexed and centrifuged (10,000 g, 10 min, 4° C.) to afford a protein disc at the interface of CHCl3 and aqueous layers. Both layers were aspirated without perturbing the disk, which was re-suspended in cold methanol (500 μL) and CHCl3 (200 μL) by sonication. The proteins were pelleted (10,000 g, 10 min, 4° C.), and the resulting pellets were re-suspended in a buffer (90 μL) containing 9M urea, 10 mM DTT and 50 mM triethylammonium bicarbonate ( 1/20 dilution of 1.0 M stock solution, pH 8.5) by thorough pipetting up and down. The resulting mixture was heated at 65° C. for 20 min. Sample was cooled to room temp, iodoacetamide (10 μL, 500 mM solution in H2O) was added, and the samples were incubated at 37° C. for 30 min with shaking.
(§4) At individual TMT experiment level, the following filters were applied to remove low-quality peptides: removal of non-unique peptides; removal of half-tryptic peptides; removal of peptides with more than one internal miscleaved site; removal of peptides with low (<10,000) sum of reporter ion intensities for control channels, and peptides with high variation between the replicate control channels (coefficient of variance >0.5). R values (compound-treated vs. DMSO-treated) for each peptide entry were calculated using the reporter ion intensities of DMSO and compound treated TMT channels for each treatment group with a maximum ratio cap of 20. […]

[2] = biological target: T2, STAT3 Signal transducer and activator of transcription 3 C259 (P40763) (Homo sapiens, UniProt P40763)
T2 construct: endogenous in cells; host or cells: primary human T cells
T2 sequence (P40763 whole entry, one chain of several): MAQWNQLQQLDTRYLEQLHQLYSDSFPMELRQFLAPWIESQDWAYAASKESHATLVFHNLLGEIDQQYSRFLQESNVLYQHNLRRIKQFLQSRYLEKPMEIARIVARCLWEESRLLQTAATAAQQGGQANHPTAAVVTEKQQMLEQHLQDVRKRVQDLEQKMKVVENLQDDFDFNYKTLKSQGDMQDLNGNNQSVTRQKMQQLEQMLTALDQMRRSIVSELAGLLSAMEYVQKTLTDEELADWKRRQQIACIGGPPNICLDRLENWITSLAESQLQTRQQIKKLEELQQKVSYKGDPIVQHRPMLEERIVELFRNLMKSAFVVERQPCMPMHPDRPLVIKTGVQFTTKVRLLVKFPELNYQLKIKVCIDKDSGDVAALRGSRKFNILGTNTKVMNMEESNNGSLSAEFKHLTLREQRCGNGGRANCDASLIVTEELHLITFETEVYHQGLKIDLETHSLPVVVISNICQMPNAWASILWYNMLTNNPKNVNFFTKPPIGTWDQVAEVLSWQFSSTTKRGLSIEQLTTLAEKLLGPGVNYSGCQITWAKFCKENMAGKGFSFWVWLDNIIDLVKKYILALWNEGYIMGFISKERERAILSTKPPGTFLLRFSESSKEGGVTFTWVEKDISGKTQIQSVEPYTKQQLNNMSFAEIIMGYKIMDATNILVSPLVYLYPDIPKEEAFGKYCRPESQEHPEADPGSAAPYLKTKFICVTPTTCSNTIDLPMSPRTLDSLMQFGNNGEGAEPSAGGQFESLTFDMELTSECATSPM
Description: as §1, §2, §3, §4

[3] = biological target: T3, CBLB E3 ubiquitin-protein ligase CBL-B C686 (Q13191) (Homo sapiens, UniProt Q13191)
T3 construct: endogenous in cells; host or cells: primary human T cells
T3 sequence (Q13191 whole entry): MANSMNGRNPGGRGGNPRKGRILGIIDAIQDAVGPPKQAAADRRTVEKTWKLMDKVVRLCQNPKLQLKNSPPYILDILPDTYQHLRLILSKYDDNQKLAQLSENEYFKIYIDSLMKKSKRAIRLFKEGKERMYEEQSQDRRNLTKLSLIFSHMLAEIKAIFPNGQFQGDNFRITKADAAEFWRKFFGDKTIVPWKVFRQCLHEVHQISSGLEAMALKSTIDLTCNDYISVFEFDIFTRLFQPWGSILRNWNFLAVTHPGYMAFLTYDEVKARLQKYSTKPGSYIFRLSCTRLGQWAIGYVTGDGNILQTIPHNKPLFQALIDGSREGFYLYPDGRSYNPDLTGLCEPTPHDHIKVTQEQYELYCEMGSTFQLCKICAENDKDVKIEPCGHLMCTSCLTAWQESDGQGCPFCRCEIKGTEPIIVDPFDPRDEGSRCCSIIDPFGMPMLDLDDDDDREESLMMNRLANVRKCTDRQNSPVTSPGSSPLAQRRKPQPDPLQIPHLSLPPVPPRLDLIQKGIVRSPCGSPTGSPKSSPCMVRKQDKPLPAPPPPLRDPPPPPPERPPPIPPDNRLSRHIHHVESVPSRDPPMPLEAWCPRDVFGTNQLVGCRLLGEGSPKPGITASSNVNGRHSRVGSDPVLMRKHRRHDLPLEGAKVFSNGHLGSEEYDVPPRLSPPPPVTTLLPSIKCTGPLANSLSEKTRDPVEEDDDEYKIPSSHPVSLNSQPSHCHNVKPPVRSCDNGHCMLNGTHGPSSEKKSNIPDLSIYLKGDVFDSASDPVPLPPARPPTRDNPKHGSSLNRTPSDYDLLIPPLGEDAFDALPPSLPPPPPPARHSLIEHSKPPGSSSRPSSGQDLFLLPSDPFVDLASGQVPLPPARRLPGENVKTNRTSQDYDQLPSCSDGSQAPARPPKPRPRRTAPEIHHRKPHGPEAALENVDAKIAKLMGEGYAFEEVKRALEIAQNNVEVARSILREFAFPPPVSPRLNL
Description: as §1, §2, §3, §4

[4] = biological target: T4, ACAT1 Acetyl-CoA acetyltransferase, mitochondrial C119 (P24752) (Homo sapiens, UniProt P24752)
T4 construct: endogenous in cells; host or cells: primary human T cells
T4 sequence (P24752 34-427): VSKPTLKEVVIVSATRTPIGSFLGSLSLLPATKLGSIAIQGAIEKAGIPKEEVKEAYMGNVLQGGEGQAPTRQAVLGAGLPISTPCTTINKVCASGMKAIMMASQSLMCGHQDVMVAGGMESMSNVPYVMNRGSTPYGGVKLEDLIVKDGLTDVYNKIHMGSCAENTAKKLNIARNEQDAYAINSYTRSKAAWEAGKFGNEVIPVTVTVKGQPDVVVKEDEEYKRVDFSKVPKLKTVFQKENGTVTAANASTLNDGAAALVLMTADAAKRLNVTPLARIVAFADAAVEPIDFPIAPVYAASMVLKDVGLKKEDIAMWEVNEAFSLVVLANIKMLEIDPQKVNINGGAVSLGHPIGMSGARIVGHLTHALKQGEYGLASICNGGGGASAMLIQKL
Description: as §1, §2, §3, §4

[5] = biological target: T5, TYK2 Non-receptor tyrosine-protein kinase TYK2 C838 (P29597) (Homo sapiens, UniProt P29597)
T5 construct: endogenous in cells; host or cells: primary human T cells
T5 sequence (P29597 whole entry): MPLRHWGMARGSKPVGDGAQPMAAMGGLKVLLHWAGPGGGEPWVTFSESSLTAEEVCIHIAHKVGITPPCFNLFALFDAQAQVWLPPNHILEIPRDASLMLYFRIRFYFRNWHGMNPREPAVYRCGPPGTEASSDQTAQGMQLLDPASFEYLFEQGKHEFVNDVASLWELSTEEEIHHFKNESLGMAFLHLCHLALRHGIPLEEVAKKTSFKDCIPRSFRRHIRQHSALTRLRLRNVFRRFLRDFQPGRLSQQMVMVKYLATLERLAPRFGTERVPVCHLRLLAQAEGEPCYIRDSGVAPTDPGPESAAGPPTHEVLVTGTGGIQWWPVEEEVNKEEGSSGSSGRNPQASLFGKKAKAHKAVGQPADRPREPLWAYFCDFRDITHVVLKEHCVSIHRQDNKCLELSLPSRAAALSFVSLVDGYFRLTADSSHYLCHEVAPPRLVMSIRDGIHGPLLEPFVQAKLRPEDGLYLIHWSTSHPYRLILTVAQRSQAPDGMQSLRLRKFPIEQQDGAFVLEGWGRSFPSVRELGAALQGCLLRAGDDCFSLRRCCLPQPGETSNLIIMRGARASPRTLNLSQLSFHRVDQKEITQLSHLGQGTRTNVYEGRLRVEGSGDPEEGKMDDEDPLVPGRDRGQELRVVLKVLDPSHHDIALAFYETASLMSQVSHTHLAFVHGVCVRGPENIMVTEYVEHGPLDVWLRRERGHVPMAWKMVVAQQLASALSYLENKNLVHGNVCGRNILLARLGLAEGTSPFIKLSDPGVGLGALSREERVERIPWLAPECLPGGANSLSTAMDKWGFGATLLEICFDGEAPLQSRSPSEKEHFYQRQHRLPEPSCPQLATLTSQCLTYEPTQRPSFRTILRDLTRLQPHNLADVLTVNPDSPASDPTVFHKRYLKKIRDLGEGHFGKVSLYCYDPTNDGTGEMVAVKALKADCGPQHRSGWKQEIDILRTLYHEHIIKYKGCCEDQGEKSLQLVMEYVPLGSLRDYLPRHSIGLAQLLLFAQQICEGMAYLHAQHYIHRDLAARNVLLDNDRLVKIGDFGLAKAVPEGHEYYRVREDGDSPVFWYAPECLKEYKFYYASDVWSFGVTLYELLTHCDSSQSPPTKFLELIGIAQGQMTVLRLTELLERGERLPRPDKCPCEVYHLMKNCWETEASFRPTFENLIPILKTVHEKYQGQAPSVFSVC
Description: as §1, §2, §3, §4

[6] = biological target: T6, PDIA3 Protein disulfide-isomerase A3 C57, C60 (P30101) (Homo sapiens, UniProt P30101)
T6 construct: endogenous in cells; host or cells: primary human T cells
T6 sequence (P30101 25-505): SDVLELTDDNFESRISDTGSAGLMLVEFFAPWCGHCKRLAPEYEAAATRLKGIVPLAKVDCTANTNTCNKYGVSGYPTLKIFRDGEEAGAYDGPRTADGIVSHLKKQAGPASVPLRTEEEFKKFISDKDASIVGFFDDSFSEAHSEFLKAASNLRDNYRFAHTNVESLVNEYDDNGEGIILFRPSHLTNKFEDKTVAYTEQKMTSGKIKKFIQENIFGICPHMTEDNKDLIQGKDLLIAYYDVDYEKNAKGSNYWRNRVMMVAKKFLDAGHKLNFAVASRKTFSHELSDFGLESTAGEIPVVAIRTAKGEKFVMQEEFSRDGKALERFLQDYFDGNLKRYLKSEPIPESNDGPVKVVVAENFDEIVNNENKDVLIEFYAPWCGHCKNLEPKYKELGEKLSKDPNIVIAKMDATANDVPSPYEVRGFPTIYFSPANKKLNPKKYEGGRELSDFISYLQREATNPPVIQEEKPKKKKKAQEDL
Description: as §1, §2, §3, §4

[7] = biological target: T7, PELP1 Proline-, glutamic acid- and leucine-rich protein 1 C71 (Q8IZL8) (Homo sapiens, UniProt Q8IZL8)
T7 construct: endogenous in cells; host or cells: primary human T cells
Description: as §1, §2, §3, §4

[8] = biological target: T8, JAK1 Tyrosine-protein kinase JAK1 C810, C817 (P23458) (Homo sapiens, UniProt P23458)
T8 construct: endogenous in cells; host or cells: primary human T cells
T8 sequence (P23458 whole entry): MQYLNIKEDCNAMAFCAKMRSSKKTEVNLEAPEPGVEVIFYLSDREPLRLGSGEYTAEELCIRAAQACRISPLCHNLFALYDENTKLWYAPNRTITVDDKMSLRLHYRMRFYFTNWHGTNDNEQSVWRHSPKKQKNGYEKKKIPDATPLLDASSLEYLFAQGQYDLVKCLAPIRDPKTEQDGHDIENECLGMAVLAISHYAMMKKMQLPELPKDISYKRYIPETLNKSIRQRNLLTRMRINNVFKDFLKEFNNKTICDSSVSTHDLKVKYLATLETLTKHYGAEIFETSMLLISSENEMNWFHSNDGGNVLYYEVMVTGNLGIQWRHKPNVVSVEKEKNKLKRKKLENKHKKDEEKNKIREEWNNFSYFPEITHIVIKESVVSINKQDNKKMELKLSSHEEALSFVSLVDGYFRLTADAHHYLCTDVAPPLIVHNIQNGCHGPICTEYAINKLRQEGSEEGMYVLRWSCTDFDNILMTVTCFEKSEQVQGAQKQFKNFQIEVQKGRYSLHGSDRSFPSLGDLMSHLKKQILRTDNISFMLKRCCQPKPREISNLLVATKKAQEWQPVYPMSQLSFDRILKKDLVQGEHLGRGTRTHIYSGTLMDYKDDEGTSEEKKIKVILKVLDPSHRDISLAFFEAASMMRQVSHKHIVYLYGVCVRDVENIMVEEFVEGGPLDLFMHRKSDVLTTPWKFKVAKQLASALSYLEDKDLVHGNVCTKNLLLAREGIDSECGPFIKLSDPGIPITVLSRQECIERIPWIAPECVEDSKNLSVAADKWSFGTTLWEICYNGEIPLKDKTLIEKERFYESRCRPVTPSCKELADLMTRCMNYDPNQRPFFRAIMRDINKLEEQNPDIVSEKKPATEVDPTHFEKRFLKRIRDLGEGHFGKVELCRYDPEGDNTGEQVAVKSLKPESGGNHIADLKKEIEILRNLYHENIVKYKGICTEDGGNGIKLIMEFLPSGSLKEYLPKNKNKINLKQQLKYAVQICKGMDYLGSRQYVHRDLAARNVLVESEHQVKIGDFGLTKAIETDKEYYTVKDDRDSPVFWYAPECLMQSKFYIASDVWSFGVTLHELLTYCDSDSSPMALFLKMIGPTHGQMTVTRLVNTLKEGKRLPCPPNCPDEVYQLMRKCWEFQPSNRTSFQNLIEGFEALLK
Description: as §1, §2, §3, §4

T1 sequence (P40763 whole entry, one chain of several): as the sequence (P40763 whole entry, one chain of several) above

O=C(CCl)N1CCN(S(=O)(=O)c2ccc(-c3ccncc3)cc2)CC1 [Compound B9]
Cysteine reactivity proteomic data ([1]; 100 μM): 64.9054
Cysteine reactivity proteomic data ([1]; 500 μM): 69.5373
Cysteine reactivity proteomic data ([2]; 100 μM): 42.3797
Cysteine reactivity proteomic data ([2]; 500 μM): 73.3713
Cysteine reactivity proteomic data ([3]; 100 μM): 25.6002
Cysteine reactivity proteomic data ([3]; 500 μM): 76.6489
Cysteine reactivity proteomic data ([4]; 100 μM): −38.85
Cysteine reactivity proteomic data ([4]; 500 μM): 24.795
Cysteine reactivity proteomic data ([5]; 100 μM): 78.9759
Cysteine reactivity proteomic data ([5]; 500 μM): 98.8468
Cysteine reactivity proteomic data [6]; 100: 61.24
Cysteine reactivity proteomic data [7]; 100: 71.33
Cysteine reactivity proteomic data ([8]; 100 μM): 18.7286
Cysteine reactivity proteomic data ([8]; 500 μM): 90.3525

C=CC(=O)N(Cc1cccc(Cl)c1Cl)c1ccc(Oc2ccccc2)c(C(F)(F)F)c1 [Compound K4]
Cysteine reactivity proteomic data ([1]; 500 μM): 12.6621
Cysteine reactivity proteomic data ([2]; 500 μM): 13.6326
Cysteine reactivity proteomic data ([3]; 500 μM): 2.418
Cysteine reactivity proteomic data ([4]; 500 μM): −0.3282
Cysteine reactivity proteomic data ([5]; 500 μM): 22.4158
Cysteine reactivity proteomic data ([6]; 500 μM): 7.07
Cysteine reactivity proteomic data ([7]; 500 μM): 1.71
Cysteine reactivity proteomic data ([8]; 500 μM): 39.2015
